Values quoted from earlier work in patent publication US12220423B2, “Compounds, derivatives, and analogs for cancer” (HYGIA PHARMACEUTICALS, LLC, priority 2018, dated 2025).

Test system: KRAS
Conditions: K-562 cells treated with 750 micromolars of IP6 for 60 min; p<0.05

## O=P(O)(O)O[C@H]1[C@H](OP(=O)(O)O)[C@@H](OP(=O)(O)O)[C@H](OP(=O)(O)O)[C@@H](OP(=O)(O)O)[C@H]1OP(=O)(O)O [myo inositol hexaphosphate]
  down regulation of KRAS and other relevant genes: down regulates KRAS and other relevant genes significantly
